IC50 and solubility data for 16 molecules are collected here from patent US20140005163A1 (NOVARTIS AG, priority 2010, published 2014).

Data set [1] has as its target T1, mTOR (Homo sapiens, UniProt P42345).
T1 construct: purchased Invitrogen Corporation (Carlsbad/CA, USA) PV4753
In words: Biochemical assay for m-TOR by TR-FRET. The conditions noted are these: 8 μM ATP, 400 nM GFP-4EBP1, 0.5 nM mTOR. The method, boiled down:
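Enzyme 0.5 nM, GFP-4EBP1 400 nM, ATP 8 μM (all final); 50 mM HEPES pH 7.5, 10 mM MnCl2, 1 mM DTT; rt. Detection: Tb-α-p4EBP1 [pT46] 0.5 nM in EDTA, TR-FRET, 15 min. Reference compound on every plate, 16-point duplicate dilutions.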
(In general: TR-FRET usually uses a lanthanide donor and a delayed reading to cut background.)

The test system of data set [2] is PKB Ser473 phosphorylation in Rat1-myr-HA-p110 beta cells. In words: Reverse protein array assay, PKB Ser473 phosphorylation in Rat1-myr-p110 beta cells. As to conditions: 0.5 h, pAkt Ser473, 30 minutes incubation, read-out: p-PKB IC50. Format: cell-based. The procedure, abridged:
(§1)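 Compound exposure lasted 30 min in Rat1 cells bearing membrane-targeted HA-p110 isoforms, using 8 serial concentrations. Arrayed lysates, each spotted at four dilutions, gave relative fluorescence signals for phospho-Ser473 PKB.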

In data set [3] the test system is PKB Ser473 phosphorylation in Rat1-myr-HA-p110 alpha cells. In words: Reverse protein array assay, PKB Ser473 phosphorylation in Rat1-myr-p110 alpha cells. As to conditions: 0.5 h, pAkt Ser473, 30 minutes compound incubation, read-out: p-PKB IC50. The data set is classed as cell-based. The procedure, abridged: as §1
The nature of data set [4]: Solubility at pH 6.8. The data set is classed as physicochemical. The conditions noted are these: pH 6.8, aqueous buffer, thermodynamic from solid; read-out: solubility. The method, boiled down:
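Following the procedure of Zhou et al. (2007), compound solubility was determined at pH 6.8.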

In data set [5] the test system is PKB Ser473 phosphorylation in Rat1-myr-HA-p110 delta cells. In words: Reverse protein array assay, PKB Ser473 phosphorylation in Rat1-myr-p110 delta cells. Format: cell-based. The conditions noted are these: read-out: p-PKB IC50. The procedure, abridged:
as §1

The test system of data set [6] is S6 Ribosomal Protein phosphorylation Ser235/236 in TSC1 null mouse embryo fibroblast (MEF) cells. In words: Reverse protein array assay, S6 Ribosomal Protein phosphorylation Ser235/236 in TSC1 null MEF cells. The conditions noted are these: 1 h, pS6 ribosomal protein Ser235/236, 60 minutes incubation, read-out: p-S6 IC50. Format: cell-based. The procedure, abridged: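 TSC1−/− MEFs, seeded and held ≥20 h at 37 °C/5% CO2, were exposed to 8-step serial compound dilutions (0.02% DMSO final; DMSO vehicle control) for 60 min at 37 °C. Cells were then lysed on ice for 10 min and lysates spotted onto reverse protein array chips.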

In brackets after ≈: the same amount, converted by molar mass.

T1 sequence (P42345 1360-2549 limits assumed): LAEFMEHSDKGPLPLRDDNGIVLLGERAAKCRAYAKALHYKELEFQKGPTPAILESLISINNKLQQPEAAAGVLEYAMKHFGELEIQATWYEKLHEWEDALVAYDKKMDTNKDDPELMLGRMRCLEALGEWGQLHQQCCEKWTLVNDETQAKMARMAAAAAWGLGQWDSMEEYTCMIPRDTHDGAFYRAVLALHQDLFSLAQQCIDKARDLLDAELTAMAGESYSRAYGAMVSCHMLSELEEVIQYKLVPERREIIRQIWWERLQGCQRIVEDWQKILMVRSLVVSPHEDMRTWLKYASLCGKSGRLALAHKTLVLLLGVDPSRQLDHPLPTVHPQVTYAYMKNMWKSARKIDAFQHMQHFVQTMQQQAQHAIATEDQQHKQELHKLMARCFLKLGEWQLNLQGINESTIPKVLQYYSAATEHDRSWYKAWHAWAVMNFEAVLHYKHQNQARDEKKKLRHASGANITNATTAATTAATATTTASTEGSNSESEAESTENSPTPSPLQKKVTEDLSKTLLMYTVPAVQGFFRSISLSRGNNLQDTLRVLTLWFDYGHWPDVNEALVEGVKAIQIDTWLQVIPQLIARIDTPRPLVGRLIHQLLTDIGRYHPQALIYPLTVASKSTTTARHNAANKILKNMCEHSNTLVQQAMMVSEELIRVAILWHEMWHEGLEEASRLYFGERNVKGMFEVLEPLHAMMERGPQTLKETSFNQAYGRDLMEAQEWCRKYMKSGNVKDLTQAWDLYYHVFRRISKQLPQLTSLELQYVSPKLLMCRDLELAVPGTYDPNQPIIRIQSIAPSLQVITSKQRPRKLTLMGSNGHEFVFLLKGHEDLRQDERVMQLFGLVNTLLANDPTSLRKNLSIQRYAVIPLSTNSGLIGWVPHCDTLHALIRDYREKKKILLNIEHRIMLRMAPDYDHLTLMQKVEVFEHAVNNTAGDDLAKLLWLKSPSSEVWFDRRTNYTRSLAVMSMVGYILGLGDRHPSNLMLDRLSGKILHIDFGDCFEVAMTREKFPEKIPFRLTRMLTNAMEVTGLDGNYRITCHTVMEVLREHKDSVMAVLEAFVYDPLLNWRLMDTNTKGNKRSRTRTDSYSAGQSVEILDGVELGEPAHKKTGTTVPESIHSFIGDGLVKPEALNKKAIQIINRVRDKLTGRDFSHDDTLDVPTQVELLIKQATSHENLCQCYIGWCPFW

With `CCn1cc(-n2c(=O)n(C)c3cnc4ccc(-c5cncc(C(C)(C)O)c5)cc4c32)c(C)n1` [Example 215.4, 1-(1-Ethyl-3-methyl-1H-pyrazol-4-yl)-8-[5-(1-hydroxy-1-methyl-ethyl)-pyridin-3-yl]-3-methyl-1,3-dihydro-imidazo[4,5-c]quinolin-2-one], the IC50 in data set [1] was 0.013 µM; in data set [2] it was 0.136 µM; in data set [3], 0.02 µM; in data set [5] it was 0.115 µM; in data set [6] it was less than 0.0005 µM. Further, the solubility in data set [4] is more than 0.443 mg/mL.
`COC(C)(C)c1cncc(-c2ccc3ncc4c(c3c2)n(-c2cn(C)nc2C)c(=O)n4C)c1` [Example 239, 1-(1,3-Dimethyl-1H-pyrazol-4-yl)-8-[5-(1-methoxy-1-methyl-ethyl)-pyridin-3-yl]-3-methyl-1,3-dihydro-imidazo[4,5-c]quinolin-2-one]: the IC50 in data set [1] was found to be 0.049 µM; in data set [2], 0.094 µM; in data set [3], 0.028 µM; in data set [5] it was 0.041 µM; in data set [6], 0.001 µM. In addition, in data set [4], the solubility came out at 0.125 mg/mL (≈ 282 µM).
In the case of `COc1cncc(-c2ccc3ncc4c(c3c2)n(-c2cn(C)nc2C)c(=O)n4C)c1` [Example 12, 1-(1,3-Dimethyl-1H-pyrazol-4-yl)-8-(5-methoxy-pyridin-3-yl)-3-methyl-1,3-dihydro-imidazo[4,5-c]quinolin-2-one], the IC50 in data set [1] was 0.017 µM; in data set [2], 0.038 µM; in data set [3], 0.037 µM; in data set [5], 0.079 µM; in data set [6] it was 0.007 µM. Moreover, the solubility in data set [4] stood at 0.039 mg/mL (≈ 97.4 µM).
For `CCOc1cc(-c2ccc3ncc4c(c3c2)n(-c2cn(C)nc2C)c(=O)n4C)cnc1C` [Example 85.1, 1-(1,3-Dimethyl-1H-pyrazol-4-yl)-8-(5-ethoxy-6-methyl-pyridin-3-yl)-3-methyl-1,3-dihydro-imidazo[4,5-c]quinolin-2-one], the IC50 in data set [1] is 0.017 µM; in data set [2] it was 0.006 µM; in data set [3] it was less than 0.005 µM; in data set [5] it was 0.033 µM; in data set [6], 0.001 µM. Also, the solubility in data set [4] stood at 0.006 mg/mL (≈ 14 µM).
Take `CCOc1ccc(-c2ccc3ncc4c(c3c2)n(-c2cn(CCO)nc2C)c(=O)n4C)cn1` [Example 103.2, 8-(6-Ethoxy-pyridin-3-yl)-1-[1-(2-hydroxy-ethyl)-3-methyl-1H-pyrazol-4-yl]-3-methyl-1,3-dihydro-imidazo[4,5-c]quinolin-2-one]: the IC50 in data set [1] is 0.022 µM; in data set [2] it was 0.014 µM; in data set [3], 0.007 µM; in data set [5], 0.106 µM; in data set [6], 0.003 µM. In addition, the solubility in data set [4] came out at 0.01 mg/mL (≈ 22.5 µM).
With `CCn1cc(-n2c(=O)n(C)c3cnc4ccc(-c5cnc(OC)nc5OC)cc4c32)c(C)n1` [Example 234.1, 8-(2,4-Dimethoxy-pyrimidin-5-yl)-1-(1-ethyl-3-methyl-1H-pyrazol-4-yl)-3-methyl-1,3-dihydro-imidazo[4,5-c]quinolin-2-one], the IC50 is 0.014 µM in data set [1]; 0.017 µM in data set [2]; 0.01 µM in data set [3]; 0.026 µM in data set [5]; 0.009 µM in data set [6]. In addition, the solubility in data set [4] amounted to 0.058 mg/mL (≈ 130 µM).
As to `CNC(=O)c1ccc(-c2ccc3ncc4c(c3c2)n(-c2cn(C)nc2C)c(=O)n4C)cc1` [Example 43.1, 4-[1-(1,3-Dimethyl-1H-pyrazol-4-yl)-3-methyl-2-oxo-2,3-dihydro-1H-imidazo[4,5-c]quinolin-8-yl]-N-methyl-benzamide], the IC50 in data set [1] is less than 0.003 µM; in data set [2], 0.011 µM; in data set [3] it was 0.014 µM; in data set [5] it was 0.046 µM; in data set [6], 0.003 µM. For the same molecule, in data set [4], the solubility turned out to be 0.019 mg/mL (≈ 44.6 µM).
For `CCOc1cc(-c2ccc3ncc4c(c3c2)n(-c2cn(C)nc2C)c(=O)n4C)cnc1COC` [Example 197.1, 1-(1,3-Dimethyl-1H-pyrazol-4-yl)-8-(5-ethoxy-6-methoxymethyl-pyridin-3-yl)-3-methyl-1,3-dihydro-imidazo[4,5-c]quinolin-2-one], the IC50 in data set [1] was found to be 0.039 µM; in data set [2], 0.04 µM; in data set [3], 0.023 µM; in data set [5], 0.132 µM; in data set [6] it was 0.007 µM. The solubility in data set [4] turned out to be 0.361 mg/mL (≈ 787 µM).
As for `Cc1nn(C)cc1-n1c(=O)n(C)c2cnc3ccc(-c4cnc(F)c(N)c4)cc3c21` [Example 149.2, 8-(5-Amino-6-fluoro-pyridin-3-yl)-1-(1,3-dimethyl-1H-pyrazol-4-yl)-3-methyl-1,3-dihydro-imidazo[4,5-c]quinolin-2-one], the IC50 came out at 0.039 µM in data set [1]; 0.068 µM in data set [2]; 0.08 µM in data set [3]; 0.056 µM in data set [5]; 0.003 µM in data set [6]. Further, the solubility in data set [4] was found to be 0.021 mg/mL (≈ 52.1 µM).
Turning to `CCNc1cc(-c2ccc3ncc4c(c3c2)n(-c2c(C)nn(C)c2C)c(=O)n4C)cnc1Cl` [Example 153.1, 8-(6-Chloro-5-ethylamino-pyridin-3-yl)-3-methyl-1-(1,3,5-trimethyl-1H-pyrazol-4-yl)-1,3-dihydro-imidazo[4,5-c]quinolin-2-one], the IC50 was determined as 0.098 µM in data set [1]; 0.017 µM in data set [2]; 0.019 µM in data set [3]; 0.019 µM in data set [5]; 0.004 µM in data set [6]. Also, the solubility in data set [4] is 0.006 mg/mL (≈ 13 µM).
With `Cc1nn(C(C)C)cc1-n1c(=O)n(C)c2cnc3ccc(-c4cncc(C(C)(C)O)c4)cc3c21` [Example 215.1, 8-[5-(1-Hydroxy-1-methyl-ethyl)-pyridin-3-yl]-1-(1-isopropyl-3-methyl-1H-pyrazol-4-yl)-3-methyl-1,3-dihydro-imidazo[4,5-c]quinolin-2-one], the IC50 in data set [1] was 0.035 µM; in data set [2], 0.048 µM; in data set [3], 0.016 µM; in data set [5] it was 0.33 µM; in data set [6] it was 0.039 µM. In addition, the solubility in data set [4] was more than 0.457 mg/mL.
Take `CCOc1cc(-c2ccc3ncc4c(c3c2)n(-c2cn(CCO)nc2C)c(=O)n4C)cnc1C` [Example 211.2, 8-(5-Ethoxy-6-methyl-pyridin-3-yl)-1-[1-(2-hydroxy-ethyl)-3-methyl-1H-pyrazol-4-yl]-3-methyl-1,3-dihydro-imidazo[4,5-c]quinolin-2-one]: the IC50 in data set [1] was found to be 0.011 µM; in data set [2], 0.038 µM; in data set [3], 0.008 µM; in data set [5] it was 0.105 µM; in data set [6], 0.011 µM. The solubility in data set [4] turned out to be 0.003 mg/mL (≈ 6.54 µM).
`COc1ccc(-c2ccc3ncc4c(c3n2)n(-c2cc(C)nn2C)c(=O)n4C)cc1OC` [Example 253, 8-(3,4-Dimethoxy-phenyl)-1-(2,5-dimethyl-2H-pyrazol-3-yl)-3-methyl-1,3-dihydro-1,3,5,9-tetraaza-cyclopenta[a]naphthalen-2-one]: the IC50 in data set [1] was 0.003 µM; in data set [2], 0.016 µM; in data set [3], 0.018 µM; in data set [5] it was 0.044 µM; in data set [6], less than 0.005 µM. Also, the solubility in data set [4] was 0.007 mg/mL (≈ 16.3 µM).
Turning to `Cc1nn(C(C)C)cc1-n1c(=O)n(C)c2cnc3ccc(-c4cnc(F)c(N)c4)cc3c21` [Example 149.1, 8-(5-Amino-6-fluoro-pyridin-3-yl)-1-(1-isopropyl-3-methyl-1H-pyrazol-4-yl)-3-methyl-1,3-dihydro-imidazo[4,5-c]quinolin-2-one], the IC50 in data set [1] is 0.079 µM; in data set [2], 0.066 µM; in data set [3] it was 0.031 µM; in data set [5], 0.118 µM; in data set [6] it was 0.009 µM. Also, in data set [4], the solubility was found to be 0.013 mg/mL (≈ 30.1 µM).
With `CNC(=O)c1cc(-c2ccc3ncc4c(c3c2)n(-c2cn(C)nc2C)c(=O)n4C)cnc1N` [Example 224.1, 2-Amino-5-[1-(1,3-dimethyl-1H-pyrazol-4-yl)-3-methyl-2-oxo-2,3-dihydro-1H-imidazo[4,5-c]quinolin-8-yl]-N-methyl-nicotinamide], the IC50 in data set [1] is 0.034 µM; in data set [2], 0.059 µM; in data set [3] it was 0.019 µM; in data set [5], 0.154 µM; in data set [6], 0.003 µM. Moreover, in data set [4], the solubility turned out to be 0.005 mg/mL (≈ 11.3 µM).
For `COc1ccc(-c2ccc3ncc4[nH]c(=O)n(-c5cc(C)nn5C)c4c3n2)cc1OC` [Example 252, 8-(3,4-Dimethoxy-phenyl)-1-(2,5-dimethyl-2H-pyrazol-3-yl)-1,3-dihydro-1,3,5,9-tetraaza-cyclopenta[a]naphthalen-2-one], the IC50 in data set [1] was 0.01 µM; in data set [2], 0.02 µM; in data set [3], 0.012 µM; in data set [5], 0.039 µM; in data set [6] it was 0.005 µM. For the same molecule, in data set [4], the solubility was 0.005 mg/mL (≈ 12 µM).

Usually IC50 stands for the concentration that inhibits the measured activity by half. One may read the solubility as the dissolved amount per volume that the medium holds.
